Results published in ChEMBL document CHEMBL1201862, “PubChem BioAssay data set” (2004).
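Assay format: 96-well plates, 48-hour exposure. Abbreviation: GI50, concentration required for 50% inhibition of growth.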 The source made the active and inactive calls. No stated cut-off is given here; in the data, active = GI50 up to about 1.1 µM and inactive = higher.

Tests used:
Assay in all cases: growth of human tumour cells (NCI), 48 h
UACC-257 = tested on: UACC-257
HT-29 = tested on: HT-29
SK-MEL-28 = tested on: SK-MEL-28
RXF 393 = tested on: RXF 393
Malme-3M = tested on: Malme-3M
SF-268 = tested on: SF-268
CCRF-CEM = tested on: CCRF-CEM
MOLT-4 = tested on: MOLT-4
MDA-MB-231 = tested on: MDA-MB-231
OVCAR-5 = tested on: OVCAR-5
SF-295 = tested on: SF-295
HOP-62 = tested on: HOP-62
A498 = tested on: A498
K562 = tested on: K562
HOP-92 = tested on: HOP-92
NCI-H522 = tested on: NCI-H522
SK-MEL-5 = tested on: SK-MEL-5
RPMI-8226 = tested on: RPMI-8226
BT-549 = tested on: BT-549

Measured: GI50

O=C(O)CSc1nnc(COc2ccc(Cl)cc2)n1-c1ccccc1
inactive: UACC-257 > 100 µM | HT-29 > 100 µM | SK-MEL-28 > 100 µM | RXF 393 > 100 µM | Malme-3M > 100 µM | SF-268 > 100 µM | CCRF-CEM > 100 µM | MOLT-4 > 100 µM | MDA-MB-231 > 100 µM | OVCAR-5 > 100 µM | SF-295 > 100 µM | HOP-62 > 100 µM | A498 > 100 µM | K562 > 100 µM | HOP-92 > 100 µM | NCI-H522 > 100 µM

Brc1cccc[n+]1-c1ccc2cc(-[n+]3ccccc3Br)ccc2c1
inactive: UACC-257 > 100 µM | HT-29 29.1 µM | SK-MEL-5 77.3 µM | SK-MEL-28 > 100 µM | RXF 393 32 µM | Malme-3M 23.1 µM | SF-268 31.8 µM | CCRF-CEM 34.1 µM | MDA-MB-231 24.2 µM | RPMI-8226 19.5 µM | BT-549 97.9 µM | OVCAR-5 39.8 µM | SF-295 53.3 µM | HOP-62 27.6 µM | A498 > 100 µM | K562 59.2 µM | NCI-H522 40.1 µM

NC(=O)C1N=NSC1NC(=O)c1ccc([N+](=O)[O-])cc1 (stereo not drawn)
inactive: UACC-257 > 100 µM | HT-29 36.9 µM | SK-MEL-5 22 µM | SK-MEL-28 > 100 µM | RXF 393 43.5 µM | Malme-3M 60.3 µM | SF-268 54.7 µM | CCRF-CEM 43.5 µM | MOLT-4 49.2 µM | MDA-MB-231 52.2 µM | RPMI-8226 26.4 µM | BT-549 48.2 µM | OVCAR-5 > 100 µM | SF-295 32.2 µM | HOP-62 > 100 µM | K562 62.7 µM

Cc1ccc(/C=c2\cc3oc(=O)c4cccc(c4-3)c2=O)cc1
inactive: UACC-257 > 100 µM | HT-29 > 100 µM | SK-MEL-28 > 100 µM | Malme-3M > 100 µM | SF-268 59.3 µM | CCRF-CEM 19.6 µM | MOLT-4 > 10 µM | MDA-MB-231 > 100 µM | RPMI-8226 31.2 µM | OVCAR-5 > 100 µM | SF-295 > 100 µM | HOP-62 > 100 µM | A498 > 100 µM | K562 33.3 µM | HOP-92 > 100 µM | NCI-H522 38.1 µM

CC(C)[Si](OC12CCC(CC1O)CC2C(=O)O)(C(C)C)C(C)C (stereo not drawn)
inactive: UACC-257 16.7 µM | HT-29 11.7 µM | SK-MEL-5 18.9 µM | SK-MEL-28 11.2 µM | SF-268 12.7 µM | CCRF-CEM 13.1 µM | MOLT-4 13.2 µM | MDA-MB-231 14.7 µM | RPMI-8226 10.1 µM | OVCAR-5 14 µM | SF-295 15.7 µM | HOP-62 14.4 µM | A498 15.3 µM | K562 31.6 µM | HOP-92 7.31 µM

Cc1cc(=O)oc2c(CNC(CC(C)C)C(=O)O)c(O)ccc12 (stereo not drawn)
inactive: UACC-257 > 100 µM | HT-29 > 100 µM | SK-MEL-5 > 100 µM | SK-MEL-28 > 100 µM | RXF 393 > 100 µM | Malme-3M 87.5 µM | SF-268 > 100 µM | MOLT-4 > 100 µM | MDA-MB-231 > 100 µM | RPMI-8226 > 100 µM | OVCAR-5 > 100 µM | SF-295 > 100 µM | HOP-62 > 100 µM | K562 > 100 µM | HOP-92 > 100 µM | NCI-H522 > 100 µM

O=C(CC(C(=O)c1cccs1)c1cccs1)c1ccsc1 (stereo not drawn)
inactive: UACC-257 60 µM | HT-29 57.9 µM | SK-MEL-5 39.6 µM | SK-MEL-28 47.5 µM | Malme-3M 40.8 µM | SF-268 56.4 µM | CCRF-CEM 37.9 µM | MOLT-4 46.2 µM | MDA-MB-231 38 µM | RPMI-8226 36.1 µM | OVCAR-5 > 100 µM | HOP-62 73.6 µM | A498 49.7 µM | K562 46 µM

O=C(O)CCNc1ncc2c(n1)-c1ccccc1OC2
inactive: UACC-257 > 100 µM | HT-29 > 100 µM | SK-MEL-5 > 100 µM | SK-MEL-28 > 100 µM | RXF 393 > 100 µM | Malme-3M > 100 µM | SF-268 > 100 µM | CCRF-CEM > 100 µM | MOLT-4 > 100 µM | MDA-MB-231 > 100 µM | RPMI-8226 > 100 µM | OVCAR-5 > 100 µM | SF-295 > 100 µM | HOP-62 > 100 µM | K562 > 100 µM | HOP-92 29 µM | NCI-H522 > 100 µM

CN(C)CCN(C)c1ccc2c(=O)n(CCN(C)C)c(=O)n3c4ccccc4c(=O)c1c23
inactive: UACC-257 1.56 µM | SK-MEL-28 2.12 µM | RXF 393 2.81 µM | Malme-3M 1.23 µM | BT-549 3.3 µM | OVCAR-5 1.87 µM
active: HT-29 0.397 µM | SK-MEL-5 0.48 µM | CCRF-CEM < 0.0258 µM | MOLT-4 0.0167 µM | RPMI-8226 0.179 µM | SF-295 0.34 µM | HOP-62 0.0897 µM | A498 0.471 µM | K562 0.14 µM | HOP-92 0.145 µM | NCI-H522 0.259 µM

CCC(Cc1cnc2nc(N)nc(N)c2n1)c1ccc(C(=O)NC(CCC(=O)O)C(=O)O)cc1 (stereo not drawn)
active: UACC-257 0.103 µM | HT-29 0.000327 µM | SK-MEL-5 0.00539 µM | Malme-3M 0.0127 µM | SF-268 0.00075 µM | CCRF-CEM < 0.0001 µM | MOLT-4 0.000264 µM | OVCAR-5 0.01 µM | SF-295 0.01 µM | HOP-62 0.00515 µM | K562 < 0.0001 µM | NCI-H522 0.01 µM
inactive: BT-549 > 100 µM | A498 > 100 µM

COc1ccc(-c2c3c(n(C4OC(COC(C)=O)C(OC(C)=O)C(OC(C)=O)C4OC(C)=O)c(=S)c2C#N)CCCC3)cc1 (stereo not drawn)
inactive: UACC-257 > 100 µM | HT-29 > 100 µM | SK-MEL-5 34.4 µM | SK-MEL-28 61.9 µM | RXF 393 33.7 µM | Malme-3M 82.6 µM | SF-268 34.2 µM | CCRF-CEM 25.5 µM | MOLT-4 27.6 µM | MDA-MB-231 55.8 µM | OVCAR-5 > 100 µM | SF-295 > 100 µM | HOP-62 89.3 µM | A498 15.2 µM | K562 65.6 µM | NCI-H522 25.3 µM

CN(C)CCCNC(=O)CCNC(=O)c1cc(NC(=O)c2cc(NC(=O)c3cc(NC(=O)c4nc(NC(=O)CCCNC(=O)c5cc(NC(=O)c6cc(NC(=O)c7cc(NC(=O)c8nccn8C)cn7C)cn6C)cn5C)cn4C)cn3C)cn2C)cn1C
inactive: UACC-257 > 100 µM | HT-29 > 100 µM | SK-MEL-5 > 100 µM | SK-MEL-28 > 100 µM | RXF 393 > 100 µM | Malme-3M > 100 µM | SF-268 > 100 µM | CCRF-CEM > 100 µM | MOLT-4 > 100 µM | MDA-MB-231 > 100 µM | RPMI-8226 > 100 µM | OVCAR-5 > 100 µM | SF-295 > 100 µM | HOP-62 > 100 µM | A498 > 100 µM | K562 > 100 µM | HOP-92 > 100 µM | NCI-H522 > 100 µM

CNS(=O)(=O)NNS(=O)(=O)c1ccc(Cl)cc1
inactive: UACC-257 > 100 µM | HT-29 > 100 µM | SK-MEL-5 > 100 µM | SK-MEL-28 > 100 µM | RXF 393 > 100 µM | Malme-3M > 100 µM | SF-268 > 100 µM | CCRF-CEM > 100 µM | MOLT-4 > 100 µM | RPMI-8226 > 100 µM | OVCAR-5 > 100 µM | SF-295 > 100 µM | HOP-62 > 100 µM | A498 > 100 µM | K562 > 100 µM | HOP-92 > 100 µM | NCI-H522 > 100 µM

CCN1C(c2ccccc2)=CC(c2ccccc2)(C(Cl)(Cl)Cl)C=C1c1ccccc1
inactive: UACC-257 4.56 µM | HT-29 3.48 µM | SK-MEL-5 1.7 µM | SK-MEL-28 3.92 µM | RXF 393 17.5 µM | Malme-3M 4.5 µM | SF-268 11.5 µM | CCRF-CEM 5.58 µM | MOLT-4 10.9 µM | MDA-MB-231 3.4 µM | RPMI-8226 2.22 µM | OVCAR-5 15.1 µM | SF-295 32.5 µM | HOP-62 18.9 µM | A498 17.3 µM | K562 2.52 µM | HOP-92 3.11 µM | NCI-H522 5.69 µM

O=C(OC1=CCN(Br)C1=O)C1=C(O)C(=O)N(Br)C1
inactive: UACC-257 26.9 µM | SK-MEL-5 17.2 µM | SK-MEL-28 18.8 µM | RXF 393 20 µM | Malme-3M 55 µM | SF-268 24.9 µM | CCRF-CEM 27.1 µM | MOLT-4 22.8 µM | MDA-MB-231 29.2 µM | RPMI-8226 24.4 µM | BT-549 18.2 µM | OVCAR-5 21.1 µM | SF-295 26.9 µM | HOP-62 24 µM | A498 > 100 µM | K562 29.1 µM | NCI-H522 14.3 µM

O=C1CSCc2sccc21
active: RXF 393 < 0.01 µM
inactive: UACC-257 > 100 µM | HT-29 > 100 µM | SK-MEL-5 > 100 µM | SK-MEL-28 > 100 µM | SF-268 > 100 µM | CCRF-CEM > 100 µM | MOLT-4 > 100 µM | MDA-MB-231 > 100 µM | BT-549 > 100 µM | OVCAR-5 > 100 µM | SF-295 > 100 µM | HOP-62 > 100 µM | A498 > 100 µM | K562 > 100 µM | NCI-H522 > 100 µM

CN(C)C=C1C(=O)c2c(Br)sc(Br)c2C1=O
inactive: UACC-257 16.3 µM | HT-29 28.8 µM | SK-MEL-5 16.3 µM | SK-MEL-28 15.3 µM | RXF 393 17.5 µM | Malme-3M 14.3 µM | SF-268 15.7 µM | CCRF-CEM 30.4 µM | MOLT-4 32.7 µM | RPMI-8226 29.8 µM | BT-549 20.8 µM | OVCAR-5 28.1 µM | SF-295 19.7 µM | HOP-62 27.9 µM | A498 21.3 µM | K562 22.1 µM | HOP-92 16.6 µM | NCI-H522 15.9 µM
